{
  "source": "patent US8329445B2",
  "about": "“Biosynthesis of phloroglucinol and preparation of 1,3-dihydroxybenzene therefrom” (Board of Trustees of Michigan State University, priority 2004, dated 2012)",
  "key": {"2-pyrone synthase": {"target": "T1, 2-pyrone synthase (Gerbera hybrida, UniProt P48391)", "T1 construct": "made in house", "T1 sequence (P48391 1-402)": "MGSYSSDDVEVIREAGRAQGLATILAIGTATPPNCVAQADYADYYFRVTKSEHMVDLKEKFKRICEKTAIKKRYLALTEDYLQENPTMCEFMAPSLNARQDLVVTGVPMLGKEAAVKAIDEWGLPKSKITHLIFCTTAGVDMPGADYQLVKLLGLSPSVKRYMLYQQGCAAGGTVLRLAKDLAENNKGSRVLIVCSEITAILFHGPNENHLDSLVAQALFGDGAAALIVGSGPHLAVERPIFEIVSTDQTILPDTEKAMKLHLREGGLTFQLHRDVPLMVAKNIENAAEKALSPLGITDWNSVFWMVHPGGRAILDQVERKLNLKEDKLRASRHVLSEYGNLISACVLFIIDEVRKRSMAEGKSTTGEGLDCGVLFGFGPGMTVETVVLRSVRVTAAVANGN", "experiment": "in vitro enzymology of purified 2-pyrone synthase", "assay_type": "biochemical", "excerpt": "(§1) To further explore its role in phloroglucinol biosynthesis, PhlD is purified to homogeneity and its in vitro enzymology examined. No activity (Table 1) is observed when acetyl-CoA alone is employed as a substrate. […] For comparison, 2-pyrone synthase, which like PhlD employs an activated 3,5-diketohexanoate 2 (Scheme 1), is purified to homogeneity."}, "PhlD": {"target": "T2, PhlD (Pseudomonas fluorescens, UniProt Q4K418)", "T2 construct": "made in house", "T2 sequence (Q4K418 1-349)": "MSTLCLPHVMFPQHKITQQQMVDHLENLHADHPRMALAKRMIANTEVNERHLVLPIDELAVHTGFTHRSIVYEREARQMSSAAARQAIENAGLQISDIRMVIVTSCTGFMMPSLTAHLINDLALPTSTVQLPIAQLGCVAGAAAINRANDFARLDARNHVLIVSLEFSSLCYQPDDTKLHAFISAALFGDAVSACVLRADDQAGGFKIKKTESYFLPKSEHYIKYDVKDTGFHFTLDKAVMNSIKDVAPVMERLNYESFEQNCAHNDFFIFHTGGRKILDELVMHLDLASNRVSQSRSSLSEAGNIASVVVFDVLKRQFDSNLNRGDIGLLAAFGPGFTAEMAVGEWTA", "experiment": "in vitro enzymology of purified PhlD", "assay_type": "biochemical, P. fluorescens Pf-5", "excerpt": "as §1"}, "E. coli strains": {"system": "E. coli strains", "experiment": "end-product inhibition in fed-batch fermentation of phlD-expressing E. coli strains", "assay_type": "cell-based", "conditions": "culture medium concentration; data not shown", "method": "Plasmid pJA3.131A (Kan^R, lacI^Q, PT7-phlD, serA) is transfected into chromosomally serA^− E. coli strains BL21(DE3), W3110(DE3), and JWF1(DE3) [i.e. RB791serA^−(DE3)], and into strain KL3(DE3) [i.e. AB2834(serA::aroB)] (E. coli strains RB791 and AB2834 are available from the E. coli Genetic Stock Center, New Haven, Conn., USA). All DE3 strains are obtained by integration of λDE3 prophage into the cell chromosomes. Cells are cultured in fed-batch conditions under mineral salts and limited glucose.\nIn these tests, phloroglucinol accumulation for all strains stops increasing during the stationary (or maintenance) phase. For BL21 and W3110, the highest phloroglucinol concentration is achieved about 6 hours and about 12 hours, respectively, after initiation of induction, i.e. the first IPTG addition. End-product inhibition is also observed."}, "[1]": {"substrate": "CC(C)(COP(=O)(O)OP(=O)(O)OC[C@H]1O[C@@H](n2cnc3c(N)ncnc32)[C@H](O)[C@@H]1OP(=O)(O)O)[C@@H](O)C(=O)NCCC(=O)NCCSC(=O)CC(=O)O", "experiment": "in vitro enzymology of purified PhlD", "assay_type": "biochemical, P. fluorescens Pf-5", "conditions": "other: substrate of PhlD purified to homogeneity", "excerpt": "as §1"}, "[2]": {"substrate": "CC(=O)SCCNC(=O)CCNC(=O)[C@H](O)C(C)(C)COP(=O)(O)OP(=O)(O)OC[C@H]1O[C@@H](n2cnc3c(N)ncnc32)[C@H](O)[C@@H]1OP(=O)(O)O", "experiment": "in vitro enzymology of purified 2-pyrone synthase", "assay_type": "biochemical, Gerbera hybrida", "conditions": "other: substrate of 2-pyrone synthase purified to homogeneity", "excerpt": "as §1"}},
  "data": [
    {"molecule": "2-pyrone synthase: 2-pyrone synthase from Gerbera hybrida, converts malonyl-CoA into triacetic acid lactone; comparison enzyme", "values": [
      {"measurement": "kcat", "setting": "2-pyrone synthase; 2-pyrone synthase purified to homogeneity", "value": 0.055, "unit": "s⁻¹"}
    ]},
    {"molecule": "CC(=O)SCCNC(=O)CCNC(=O)[C@H](O)C(C)(C)COP(=O)(O)OP(=O)(O)OC[C@H]1O[C@@H](n2cnc3c(N)ncnc32)[C@H](O)[C@@H]1OP(=O)(O)O", "note": "[acetyl-CoA]", "values": [
      {"measurement": "specific activity with malonyl-CoA and acetyl-CoA relative to malonyl-CoA in the absence of acetyl-CoA", "setting": "2-pyrone synthase; 2-pyrone synthase incubated with malonyl-CoA and acetyl-CoA", "value": "twofold higher"},
      {"measurement": "activity as substrate", "setting": "2-pyrone synthase; acetyl-CoA as a substrate of 2-pyrone synthase", "value": "unable to use acetyl-CoA as a substrate"},
      {"measurement": "specific activity with malonyl-CoA and acetyl-CoA relative to only malonyl-CoA", "setting": "PhlD; PhlD incubated with malonyl-CoA and acetyl-CoA", "value": "Approximately equal"},
      {"measurement": "activity as substrate", "setting": "PhlD; employed alone as a substrate of PhlD", "value": "No activity"}
    ]},
    {"molecule": "Oc1cc(O)cc(O)c1", "note": "[phloroglucinol, 1,3,5-trihydroxybenzene]", "values": [
      {"measurement": "concentration at which phloroglucinol is responsible for end-product inhibition", "setting": "E. coli strains", "value": "≥ 2", "unit": "g/L"}
    ]},
    {"molecule": "PhlD (Pseudomonas protegens Pf-5) (protein, made in house) MSTLCLPHVMFPQHKITQQQMVDHLENLHADHPRMALAKRMIANTEVNERHLVLPIDELAVHTGFTHRSIVYEREARQMSSAAARQAIENAGLQISDIRMVIVTSCTGFMMPSLTAHLINDLALPTSTVQLPIAQLGCVAGAAAINRANDFARLDARNHVLIVSLEFSSLCYQPDDTKLHAFISAALFGDAVSACVLRADDQAGGFKIKKTESYFLPKSEHYIKYDVKDTGFHFTLDKAVMNSIKDVAPVMERLNYESFEQNCAHNDFFIFHTGGRKILDELVMHLDLASNRVSQSRSSLSEAGNIASVVVFDVLKRQFDSNLNRGDIGLLAAFGPGFTAEMAVGEWTA", "values": [
      {"measurement": "Km", "setting": "[1]", "value": 37, "unit": "µM"}
    ]},
    {"molecule": "PhlD: phloroglucinol synthase expressed from phlD gene of P. fluorescens Pf-5, SEQ ID NO:2 (protein, Pseudomonas fluorescens Pf-5) MSTLCLPHVMFPQHKITQQQMVDHLENLHADHPRMALAKRMIANTEVNERHLVLPIDELAVHTGFTHRSIVYEREARQMSSAAARQAIENAGLQISDIRMVIVTSCTGFMMPSLTAHLINDLALPTSTVQLPIAQLGCVAGAAAINRANDFARLDARNHVLIVSLEFSSLCYQPDDTKLHAFISAALFGDAVSACVLRADDQAGGFKIKKTESYFLPKSEHYIKYDVKDTGFHFTLDKAVMNSIKDVAPVMERLNYESFEQNCAHNDFFIFHTGGRKILDELVMHLDLASNRVSQSRSSLSEAGNIASVVVFDVLKRQFDSNLNRGDIGLLAAFGPGFTAEMAVGEWTA", "values": [
      {"measurement": "kcat", "setting": "PhlD; PhlD purified to homogeneity, malonyl-CoA substrate", "value": 0.0783, "unit": "s⁻¹"}
    ]},
    {"molecule": "2-pyrone synthase (Gerbera hybrid cultivar) (protein, made in house) MGSYSSDDVEVIREAGRAQGLATILAIGTATPPNCVAQADYADYYFRVTKSEHMVDLKEKFKRICEKTAIKKRYLALTEDYLQENPTMCEFMAPSLNARQDLVVTGVPMLGKEAAVKAIDEWGLPKSKITHLIFCTTAGVDMPGADYQLVKLLGLSPSVKRYMLYQQGCAAGGTVLRLAKDLAENNKGSRVLIVCSEITAILFHGPNENHLDSLVAQALFGDGAAALIVGSGPHLAVERPIFEIVSTDQTILPDTEKAMKLHLREGGLTFQLHRDVPLMVAKNIENAAEKALSPLGITDWNSVFWMVHPGGRAILDQVERKLNLKEDKLRASRHVLSEYGNLISACVLFIIDEVRKRSMAEGKSTTGEGLDCGVLFGFGPGMTVETVVLRSVRVTAAVANGN", "values": [
      {"measurement": "Km", "setting": "[2]", "value": 2.2, "unit": "µM"}
    ]}
  ]
}
